PMC8530938 (Chemico-biological interactions, 2021)
Where two headings read alike, the source gives them in different places.

Key:
yeast ADH1 = conditions: oxidation; ref [77]; cited from earlier work
yeast ADH2 = conditions: oxidation; ref [77]; cited from earlier work
[1] = target: wild-type yeast alcohol dehydrogenase (ADH1); conditions: pH 7.3, 30 °C, ref [21], cited from earlier work
[2] = target: T1, T45G yeast alcohol dehydrogenase (ADH1) (Saccharomyces cerevisiae, UniProt P00330, T46G); assay: biochemical; format: biochemical
T1 sequence (P00330 2-348 T46G): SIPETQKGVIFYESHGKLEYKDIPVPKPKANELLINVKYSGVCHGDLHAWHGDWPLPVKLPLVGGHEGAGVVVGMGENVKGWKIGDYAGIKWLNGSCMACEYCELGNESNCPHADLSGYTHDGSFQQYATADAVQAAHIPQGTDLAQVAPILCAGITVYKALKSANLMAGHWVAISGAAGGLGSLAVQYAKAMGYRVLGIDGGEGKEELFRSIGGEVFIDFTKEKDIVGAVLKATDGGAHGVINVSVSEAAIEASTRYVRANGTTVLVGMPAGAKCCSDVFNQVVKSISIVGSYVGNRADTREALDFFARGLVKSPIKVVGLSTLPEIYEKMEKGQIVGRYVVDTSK

[3] = target: T1, T45G yeast alcohol dehydrogenase (ADH1)
[4] = target: wild-type yeast enzyme (ADH1); conditions: read-out: Kd of NAD+; pH 8; ref [11]; cited from earlier work
horse liver ADH = conditions: cited from earlier work
[5] = target: T1, T45G yeast alcohol dehydrogenase (ADH1); assay: Spectrophotometric titration with NAD+ in the presence of 10 mM pyrazole; format: binding; conditions: titration in the presence of 10 mM pyrazole
[6] = test system: horse liver ADH1E with S48A substitution; conditions: ref [6]; cited from earlier work

In the case of `OCc1ccccc1` [Benzyl alcohol], the turnover number (yeast ADH1) is given as 0.012 s⁻¹ and the turnover number (yeast ADH2) is given as 1.9 s⁻¹.
For `OCC(F)(F)F` [CF3CH2OH, 2,2,2-trifluoroethanol], the Ki ([1]; read-out: Ki, dissociation (inhibition) constant, competitive inhibitor of ethanol) is listed as 2500 µM, the Ki [2] is listed as 27000 µM and the “increase of dissociation constant (Ki), T45G relative to wild type” value ([2]; pH 7.3) is listed as 10 fold.
In the case of `NC(=O)C1=CN([C@@H]2O[C@H](COP(=O)(O)OP(=O)(O)OC[C@H]3O[C@@H](n4cnc5c(N)ncnc54)[C@H](O)[C@@H]3O)[C@@H](O)[C@H]2O)C=CC1` [NADH], the “Kq, Michaelis constant for NADH” value [1] is given as 94 µM, the Ki ([1]; read-out: Kiq, dissociation (inhibition) constant for NADH) is given as 31 µM and the “Kq, Michaelis constant for NADH” value ([2]; pH 7.3, 30 °C) is given as 47 µM. For the same compound, the Ki ([2]; read-out: Kiq, dissociation (inhibition) constant for NADH, pH 7.3, 30 °C) was 70 µM, the “Kq, NADH” value ([3]; pH 5.52, 30 °C) was 9.6 µM and the “Kq, NADH” value ([3]; pH 6.06, 30 °C) was 3.4 µM. The “Kq, NADH” value ([3]; pH 6.52, 30 °C) was 18 µM, the “Kq, NADH” value ([3]; pH 7.00, 30 °C) was 13 µM and the “Kq, NADH” value ([3]; pH 7.65, 30 °C) was 220 µM. For the same compound, the “Kq, NADH” value ([3]; pH 8.08, 30 °C) was 320 µM, the “Kq, NADH” value ([3]; pH 8.96, 30 °C) was 910 µM and the Ki ([3]; read-out: Kiq, NADH, pH 5.52, 30 °C) was 3.8 µM. It also gave a Ki ([3]; read-out: Kiq, NADH, pH 6.06, 30 °C) of 8.6 µM, a Ki ([3]; read-out: Kiq, NADH, pH 6.52, 30 °C) of 11 µM and a Ki ([3]; read-out: Kiq, NADH, pH 7.00, 30 °C) of 38 µM. It also gave a Ki ([3]; read-out: Kiq, NADH, pH 7.65, 30 °C) of 156 µM, a Ki ([3]; read-out: Kiq, NADH, pH 8.08, 30 °C) of 290 µM and a Ki ([3]; read-out: Kiq, NADH, pH 8.96, 30 °C) of 450 µM.
For `NC(=O)c1ccc[n+]([C@@H]2O[C@H](COP(=O)([O-])OP(=O)(O)OC[C@H]3O[C@@H](n4cnc5c(N)ncnc54)[C@H](O)[C@@H]3O)[C@@H](O)[C@H]2O)c1` [NAD^+], the Kd [4] is given as 1000 µM, the Kd (horse liver ADH; read-out: Kd of NAD+, open conformation of the protonated enzyme, pH 8, ref [11]) is given as 670 µM and the Kd (horse liver ADH; read-out: observed dissociation constant for NAD+, after deprotonation and the conformational change, ref [52]) is given as 27 µM. The “apparent Kd for NAD+” value [5] was “about the same as for wild-type enzyme”, the “Ka, Michaelis constant for NAD+” value ([1]; 83 mM potassium phosphate, 40 mM KCl, 0.25 mM EDTA) was 160 µM and the Ki ([1]; read-out: Kia, dissociation (inhibition) constant for NAD+) was 950 µM. For the same compound, the “Ka, Michaelis constant for NAD+” value ([2]; pH 7.3, 30 °C, 83 mM potassium phosphate, 40 mM KCl, 0.25 mM EDTA) was 1500 µM, the Ki ([2]; read-out: Kia, dissociation (inhibition) constant for NAD+, pH 7.3, 30 °C) was 1600 µM and the “Ka, NAD+” value ([3]; pH 5.60, 30 °C) was 660 µM. The “Ka, NAD+” value ([3]; pH 6.05, 30 °C) was 510 µM, the “Ka, NAD+” value ([3]; pH 6.54, 30 °C) was 720 µM and the “Ka, NAD+” value ([3]; pH 7.00, 30 °C) was 690 µM. For the same compound, the “Ka, NAD+” value ([3]; pH 8.07, 30 °C) was 2100 µM, the “Ka, NAD+” value ([3]; pH 9.00, 30 °C) was 2140 µM and the “Ka, NAD+” value ([3]; pH 9.95, 30 °C) was 1580 µM. The Ki ([3]; read-out: Kia, NAD+, pH 5.60, 30 °C) was 800 µM, the Ki ([3]; read-out: Kia, NAD+, pH 6.05, 30 °C) was 650 µM and the Ki ([3]; read-out: Kia, NAD+, pH 6.54, 30 °C) was 720 µM. It also gave a Ki ([3]; read-out: Kia, NAD+, pH 7.00, 30 °C) of 880 µM, a Ki ([3]; read-out: Kia, NAD+, pH 8.07, 30 °C) of 1130 µM and a Ki ([3]; read-out: Kia, NAD+, pH 9.00, 30 °C) of 1470 µM. The Ki ([3]; read-out: Kia, NAD+, pH 9.95, 30 °C) was 2370 µM.
For `CC=O` [acetaldehyde], the “V2/Et, turnover number for acetaldehyde reduction” value [1] is listed as 1800 s⁻¹, the “V2/Et, turnover number for acetaldehyde reduction” value ([2]; pH 7.3, 30 °C) is listed as 7.8 s⁻¹ and the “Kp, CH3CHO” value ([3]; pH 5.52, 30 °C) is listed as 52 mM. The “V2/Et (acetaldehyde reduction)” value ([3]; pH 5.52, 30 °C) was 21 s⁻¹, the “Kp, CH3CHO” value ([3]; pH 6.06, 30 °C) was 46 mM and the “V2/Et (acetaldehyde reduction)” value ([3]; pH 6.06, 30 °C) was 16 s⁻¹. For the same compound, the “Kp, CH3CHO” value ([3]; pH 6.52, 30 °C) was 56 mM, the “V2/Et (acetaldehyde reduction)” value ([3]; pH 6.52, 30 °C) was 16 s⁻¹ and the “Kp, CH3CHO” value ([3]; pH 7.00, 30 °C) was 41 mM. For the same compound, the “V2/Et (acetaldehyde reduction)” value ([3]; pH 7.00, 30 °C) was 9.5 s⁻¹, the “Kp, CH3CHO” value ([3]; pH 7.65, 30 °C) was 43 mM and the “V2/Et (acetaldehyde reduction)” value ([3]; pH 7.65, 30 °C) was 9.3 s⁻¹. For the same compound, the “Kp, CH3CHO” value ([3]; pH 8.08, 30 °C) was 35 mM, the “V2/Et (acetaldehyde reduction)” value ([3]; pH 8.08, 30 °C) was 7.3 s⁻¹ and the “Kp, CH3CHO” value ([3]; pH 8.96, 30 °C) was 33 mM. The “V2/Et (acetaldehyde reduction)” value ([3]; pH 8.96, 30 °C) was 4.2 s⁻¹.
For `CCO` [ethanol], the turnover with ethanol [6] is listed as 0.018 s⁻¹, the “V1/Et, turnover number for ethanol oxidation” value [1] is listed as 360 s⁻¹ and the “V1/Et, turnover number for ethanol oxidation” value ([2]; pH 7.3, 30 °C) is listed as 0.64 s⁻¹. For the same compound, the “V1/Et (ethanol oxidation)” value ([3]; pH 5.60, 30 °C) was 0.11 s⁻¹, the “V1/Et (ethanol oxidation)” value ([3]; pH 6.05, 30 °C) was 0.19 s⁻¹ and the “V1/Et (ethanol oxidation)” value ([3]; pH 6.54, 30 °C) was 0.32 s⁻¹. The “V1/Et (ethanol oxidation)” value ([3]; pH 7.00, 30 °C) was 0.42 s⁻¹, the “V1/Et (ethanol oxidation)” value ([3]; pH 8.07, 30 °C) was 0.72 s⁻¹ and the “V1/Et (ethanol oxidation)” value ([3]; pH 9.00, 30 °C) was 0.56 s⁻¹. The “V1/Et (ethanol oxidation)” value ([3]; pH 9.95, 30 °C) was 0.44 s⁻¹ and the Kb ([3]; read-out: Kb, CH3CH2OH, pH 9.95, 30 °C) was 91000 µM.
